According to patent publication US10800816B2 (Baxalta GmbH, priority 2012, dated 2020):
Like-named read-outs stand apart in the source and are kept apart here. *1 amine or outer side, *2 acyl side, *3 side chain or, on linkers, in order; H or OH if unused. Where a SMILES comes first, the peptide text is derived from it. Bridges are numbered along the chain shown (N, C = ends). Side-chain parts run from the residue outwards. [ ]: non-standard residue; d: D form. The star is where a group is joined. X1 = CCCCCCCCCCCCCC(=O)NCCCOCCOCCOCCCN*; Suc = O=C(CCC(=O)[*:2])[*:1]; Tle = CC(C)(C)[C@H](N)C(=O)O; Hexanoyl = CCCCCC(=O)*; Aib = CC(C)(N)C(=O)O; Acm = CC(=O)NC*

How the values were obtained:
[1] = test system: Tissue Factor Pathway Inhibitor (TFPI); assay: IC50 ELISA | Mean IC50 [nM]
Excerpt: Table printed on a drawing sheet, FIGURE 78V
(§1) Head of the field: IC50 ELISA | Mean IC50 [nM]

TFPI [2] = assay: IC50 ELISA | Mean IC50 [nM]
TFPI [3] = assay: IC50 ELISA | Mean IC50 [nM]; remark: listed apart in the source
Excerpt: Table printed on a drawing sheet, FIGURE 78Z
as §1
First copying reader's note: Continued table: the first body row (45.67) belongs to a compound on the preceding sheet, the last row probably continues on the next sheet, and cells with several values list single replicates.

TFPI [4] = assay: Progress Curves of Inhibition of FXa | % Inhibit (2.5µM)
Protocol: Head of the field: Progress Curves of Inhibition of FXa | % Inhibit (2.5µM)
“*” denotes negative controls.

TFPI [5] = assay: Progress Curves of Inhibition of FXa | % Inhibit (2.5μM)
Protocol: Head of the field: Progress Curves of Inhibition of FXa | % Inhibit (2.5μM)

TFPI [6] = assay: Extrinsic Tenase Inhibition by TFPI | % Inhibit (2.5μM )
TFPI [7] = assay: IC50 ELISA | Mean IC50 [nM]; remark: listed apart in the source
TFPI [8] = assay: IC50 ELISA | Mean IC50 [nM]; remark: listed apart in the source
[9] = test system: Tissue Factor Pathway Inhibitor (TFPI); assay: IC50 ELISA | Mean IC50 [nM]; remark: listed apart in the source
TFPI [10] = conditions: read-out: IC50 Mean
[11] = test system: Tissue Factor Pathway Inhibitor (TFPI); assay: IC50 ELISA | IC50 [nM]
Excerpt: Table printed on a drawing sheet, FIGURE 78E
(§2) Head of the field: IC50 ELISA | IC50 [nM]

[12] = test system: Tissue Factor Pathway Inhibitor (TFPI); assay: IC50 ELISA | Mean IC50 [nM]; remark: listed apart in the source
[13] = test system: Tissue Factor Pathway Inhibitor (TFPI); assay: IC50 ELISA | IC50 [nM]; remark: listed apart in the source
Excerpt: Table printed on a drawing sheet, FIGURE 78N
as §2

[14] = test system: Tissue Factor Pathway Inhibitor (TFPI); assay: IC50 ELISA | IC50 [nM]; remark: listed apart in the source
Excerpt: Table printed on a drawing sheet, FIGURE 78Q
as §2

[15] = test system: Tissue Factor Pathway Inhibitor (TFPI); assay: IC50 ELISA | Mean IC50 [nM]; remark: listed apart in the source
FIGURE 78L = assay: FIGURE 78L
Excerpt: Table printed on a drawing sheet, FIGURE 78L

FIGURE 78K = assay: FIGURE 78K
Excerpt: Table printed on a drawing sheet, FIGURE 78K

[16] = test system: Tissue Factor Pathway Inhibitor (TFPI); assay: IC50 ELISA | Mean IC50 [nM]; remark: listed apart in the source
Excerpt: Table printed on a drawing sheet, FIGURE 78M
as §1

[17] = test system: Tissue Factor Pathway Inhibitor (TFPI); assay: IC50 ELISA | Mean IC50 [nM]; remark: listed apart in the source
FIGURE 78W = assay: FIGURE 78W
Excerpt: Table printed on a drawing sheet, FIGURE 78W

[18] = test system: Tissue Factor Pathway Inhibitor (TFPI); assay: IC50 ELISA | IC50 [nM]; remark: listed apart in the source
Excerpt: Table printed on a drawing sheet, FIGURE 78R
as §2

TFPI [19] = assay: Progress Curves of Inhibition of FXa | % Inhibit (2.5µM); remark: listed apart in the source
TFPI [20] = assay: Extrinsic Tenase Inhibition by TFPI | % Inhibit (2.5µM)
TFPI [21] = assay: Progress Curves of Inhibition of FXa | % Inhibit (2.5µM); remark: listed apart in the source
TFPI [22] = assay: Extrinsic Tenase Inhibition assay | % Inhibition @ 2.5µM
[23] = test system: Tissue Factor Pathway Inhibitor (TFPI); assay: IC50 ELISA | Mean IC50 [nM]; remark: listed apart in the source
FIX knock-out mice = assay: Tail-tip bleed model in FIX knock-out mice; assay type: in vivo, mouse
Protocol: JBT2329 also was tested in a FIX knock-out tail-tip bleed mouse model, which is a clinically-relevant model for hemophilia B human patients. The methodology was substantially similar to that described above with respect to the FVIII knock-out model. Instead of ADVATE, a recombinant FIX (rFIX) served as a reference. Median total blood loss in buffer-treated animals was 935 mg. Median total blood loss in animals treated with a murine anti-TFPI antibody (maTFPI) was 774 mg. Median total blood loss was reduced further when the animals received combined treatment of maTFPI and rFIX.

CC(=O)N[C@@H](Cc1ccccc1)C(=O)N[C@@H](CCC(N)=O)C(=O)N[C@@H](CO)C(=O)N[C@@H](CCCCN)C(=O)N1CCC[C@@H]1C(=O)N[C@@H](CC(N)=O)C(=O)N[C@H](C(=O)N[C@@H](Cc1c[nH]cn1)C(=O)N[C@H](C(=O)N[C@@H](CC(=O)O)C(=O)N[C@@H]1CSSC[C@@H](C(=O)N[C@@H](CCCNC(=N)N)C(=O)N[C@@H](CC(C)C)C(=O)NC(C)(C)C(=O)N[C@@H](C)C(=O)N[C@@H](CCCCN)C(=O)N[C@@H](CC(C)C)C(N)=O)NC(=O)[C@H](Cc2ccccc2)NC(=O)[C@H](Cc2ccc(O)cc2)NC1=O)C(C)(C)C)C(C)C [JBT00002495, Ac-FQSKpNVH-Tle-D[cYFC]RL-Aib-AKL-NH2] (Ac-FQSK[dP]NVH[Tle]D[dC]YFCRL[Aib]AKL-NH2; disulfide 11-14)
IC50 [1]: 3.36 nM

CCCCCCCCCCCCCC(=O)NCCCOCCOCCOCCCNC(=O)CCC(=O)NCCCC[C@H](NC(=O)[C@H](CC(C)C)NC(=O)[C@H](CCCCN)NC(=O)[C@H](C)NC(=O)C(C)(C)NC(=O)[C@H](CC(C)C)NC(=O)[C@H](CCCNC(=N)N)NC(=O)[C@H](CCC(=O)O)NC(=O)[C@H](Cc1ccccc1)NC(=O)[C@H](Cc1ccc(O)cc1)NC(=O)[C@@H](C)NC(=O)[C@H](CC(=O)O)NC(=O)[C@@H](NC(=O)[C@H](Cc1c[nH]cn1)NC(=O)[C@@H](NC(=O)[C@H](CSCNC(C)=O)NC(=O)[C@H]1CCCN1C(=O)[C@H](CCCCN)NC(=O)[C@H](CO)NC(=O)[C@H](CCC(N)=O)NC(=O)[C@H](Cc1ccccc1)NC(=O)CCCCC)C(C)C)C(C)(C)C)C(N)=O [JBT00002531, Hex-FQSKp-Cys(Acm)-VH-Tle-DaYFERL-Aib-AKLK(Ttds- Myr)--NH2] (Hexanoyl-FQSK[dP]C(Acm)VH[Tle]D[dA]YFERL[Aib]AKLK([Suc-X1])-NH2)
IC50 (TFPI [2]): 27.2 nM
IC50 (TFPI [3]): 27 nM

(Ac-FQSKpNVHVDGYFERL-Aib-AKLC-NH2)2-M2PEG2000 [JBT00002523]
IC50 (TFPI [2]): 1.03 nM

Ac- KKLTGDWTYFWSKVIWGPGVIERQMPVSTFH KK-NH2 (SEQ ID NO: 3065) (Ac-KKLTGDWTYFWSKVIWGPGVIERQMPVSTFHKK-NH2) [JBT0177*]
Progress Curves of Inhibition of FXa | % Inhibit ([…]) (TFPI [4]): 4%

Ac- KKPLAVQLHVSKRSKEMALARLYYKTSKK- NH2 (SEQ ID NO: 2129) (Ac-KKPLAVQLHVSKRSKEMALARLYYKTSKK-NH2) [JBT0229]
Progress Curves of Inhibition of FXa | % Inhibit ([…]) (TFPI [5]): 0%
Extrinsic Tenase Inhibition by TFPI | % Inhibit ([…]) (TFPI [6]): 0%

Ac- KKVGSVTRWSMYGPIFIKFTWTLEQPVGWDH KK-NH2 (SEQ ID NO: 3056) (Ac-KKVGSVTRWSMYGPIFIKFTWTLEQPVGWDHKK-NH2) [JBT0176*]
Progress Curves of Inhibition of FXa | % Inhibit ([…]) (TFPI [4]): 0%

Ac-FQSK-Nmg-NVFVFGYFERLRAKL-NH2 [JBT00000500]
IC50 (TFPI [7]): 93.4 nM

Ac-FQSK-Nmg-NVFVTGYFERL-Aib-AKL-NH2 [JBT00001585]
IC50 (TFPI [8]): 15.1 nM

Ac-FQSK-nma-NVHVDGYFERL-Aib-AKL-NH2 [JBT00002280]
IC50 [9]: 4.6 nM

Ac-FQSKGNVFVDGYFERL-Aib-AKLC(PEG)-NH2 [JBT00001855]
IC50 (TFPI [8]): 121 nM

Ac-FQSKGNVFVTGYFDRLRAKL-NH2 [JBT0775 | 69]
IC50 (TFPI [10]): 22 nM

Ac-FQSKKNVFV-NH2 [JBT00002258]
IC50 [11]: > 5000 nM

Ac-FQSKp-C(Acm)-VH-Tle-D[cY-Bta--Hcy-]RL-Aib-AKL- NH2 [JBT00002501]
IC50 [12]: 6.31 nM

Ac-FQSKp-C(NEM)-VH-Tle-DaY-Bta-ERL-Aib-AKL-NH2 [JBT00002502]
IC50 [12]: 3.89 nM

Ac-FQSKpNVH-Nmv-DGYFERL-Aib-AKLC(NEM)-NH2 [JBT00002387]
IC50 [13]: > 500 nM

Ac-FQSKpNVH-Tle-D-hcy-YF-Hcy-RL-Aib-AKL-NH2 [JBT00002497]
IC50 [1]: 7.16 nM

Ac-FQSKpNVH-Tle-D-hcy-YFCRL-Aib-AKL-NH2 [JBT00002498]
IC50 [1]: 7.59 nM

Ac-FQSKpNVH-Tle-DGYFERL-Aib-A-Nmk-L-NH2 [JBT00002425]
IC50 [14]: > 500 nM

Ac-FQSKpNVH-Tle-DcY-Bta--Hcy-RL-Aib-AKL-NH2 [JBT00002500]
IC50 [12]: 5.26 nM

Ac-FQSKpNVHVDGYFERL-Aib-AKLC(ME-50MA)-NH2 [JBT00002325]
IC50 [15]: 6.6 nM

Ac-FQSKpNVHVDGYFERL-Aib-AKLC(ME-120MA)-NH2 [JBT00002326]
IC50 [15]: 9.3 nM

Ac-FQSKpNVHVDGYFERL-Aib-AKLC(ME-400MA)-NH2 [JBT00002329] [listing 1 of 2 here]
24 h Human Plasma Stability | Mean Remaining [%] (FIGURE 78L): 62.90%
24 h Mouse Plasma Stability | Mean Remaining [%] (FIGURE 78L): 81.80%
24 h Human Plasma Stability | Mean Remaining [%] (FIGURE 78M): 59.30%
24 h Mouse Plasma Stability | Mean Remaining [%] (FIGURE 78M): 56.70%
24 h Human Plasma Stability | Mean Remaining [%] (FIGURE 78K): 69.50%
24 h Mouse Plasma Stability | Mean Remaining [%] (FIGURE 78K): 69.50%

Ac-FQSKpNVHVDGYFERL-Aib-AKLC(ME-400MA)-NH2 [JBT00002329] [listing 2 of 2 here]
IC50 [16]: 20.8 nM

Ac-FQSKpNVHVDGYFERL-Egz-AKL-NH2 [JBT00002302]
IC50 [17]: 2.7 nM

Ac-FQSKpNVHVPcYF-Hcy-RL-Aib-AKL-NH2 [JBT00002499]
24 h Human Plasma Stability | Mean Remaining [%] (FIGURE 78W): 40.70%

Ac-FQVH-Tle-DGYFERL-Aib-AKL-NH2 [JBT00002428]
IC50 [14]: > 500 nM

Ac-FqVH-Tle-DGYFERL-Aib-AKL-NH2 [JBT00002429]
IC50 [18]: > 500 nM

Ac-KWFCGMRDMKGTMSCVWVKFRYDTS- [JBT0324]
Progress Curves of Inhibition of FXa | % Inhibit ([…]) (TFPI [19]): 0%

Ac-SGGRKHKHFLRSNGKPSRALSS-NH2 (SEQ [JBT0424]
Extrinsic Tenase Inhibition by TFPI | % Inhibit ([…]) (TFPI [20]): 0%
Progress Curves of Inhibition of FXa | % Inhibit ([…]) (TFPI [21]): 1%

Ac-SRYKWFGMR[CDMKGC]TMSVWVKF-NH2 (SEQ ID NO: 1162) (Ac-SRYKWFGMRCDMKGCTMSVWVKF-NH2; disulfide 10-15; SMILES CSCC[C@H](NC(=O)CNC(=O)[C@H](Cc1ccccc1)NC(=O)[C@H](Cc1c[nH]c2ccccc12)NC(=O)[C@H](CCCCN)NC(=O)[C@H](Cc1ccc(O)cc1)NC(=O)[C@H](CCCNC(=N)N)NC(=O)[C@H](CO)NC(C)=O)C(=O)N[C@@H](CCCNC(=N)N)C(=O)N[C@H]1CSSC[C@@H](C(=O)N[C@H](C(=O)N[C@@H](CCSC)C(=O)N[C@@H](CO)C(=O)N[C@H](C(=O)N[C@@H](Cc2c[nH]c3ccccc23)C(=O)N[C@H](C(=O)N[C@@H](CCCCN)C(=O)N[C@@H](Cc2ccccc2)C(N)=O)C(C)C)C(C)C)[C@@H](C)O)NC(=O)CNC(=O)[C@H](CCCCN)NC(=O)[C@H](CCSC)NC(=O)[C@H](CC(=O)O)NC1=O) [JBT0470]
Extrinsic Tenase Inhibition assay | % Inhibition @ […] (TFPI [22]): 2%

FAM-Ttds-FQSK-Nmg-NVFVDGYFERL-Aib-AKL-NH2 [JBT00002262]
IC50 [23]: 13.4 nM

Palm-FQSKpNVH-Tle-DaYFERL-Aib-AKL-NH2 [JBT00002440]
IC50 [18]: > 500 nM

rFIX: a recombinant FIX
Median total blood loss (FIX knock-out mice; 10 IU/kg rFIX alone): 888 mg
Median total blood loss (FIX knock-out mice; 25 IU/kg rFIX alone): 774 mg
